According to patent US12383545B1, “Treatment of migraine” (priority 2018, dated 2025):

Key:
[1] = tested on: participants with episodic migraine; test: Study A: Migraine-Specific Quality of Life Questionnaire (MSQ v2.1) domain scores; type: in vivo, human; parameters: key to MSQ v2.1 Role Function Restrictive domain score, Week 12, mean (SD) / MSQ v2.1 Role Function Restrictive domain score, change from baseline, mean (SD) / MSQ v2.1 Role Function Restrictive domain score, MMRM LS mean change (SE): 0–100 scale, higher = better quality of life; details: for MSQ v2.1 Role Function Restrictive domain score, Week 12, mean (SD): mITT; for MSQ v2.1 Role Function Restrictive domain score, MMRM LS mean change (SE) / MSQ v2.1 Role Function Restrictive domain score, change from baseline, mean (SD): week 12, mITT; for MSQ v2.1 EF domain, improvement vs placebo / MSQ v2.1 RFP domain, improvement vs placebo: week 12
Source text: (§1) The Migraine-Specific Quality of Life Questionnaire Version 2.1 is one of the most frequently utilized disease-specific tools assessing the impact of migraine on HRQL. The MSQ is a validated tool that assess the impact of migraine on function (i.e., daily social and work-related activities) over the past 4 weeks across three dimensions: Role Function-Restrictive (RR, or “RFR”, relating to how migraines limit the patient's daily social and work related activities), Role Function-Preventive (RP, e.g., how migraines prevent the patient's daily social and work related activities), and Emotional Function (EF, e.g., the emotions associated with a patient's migraines). Patients respond to items using a 6-point scale: “none of the time,” “a little bit of the time,” “some of the time”, “a good bit of the time,” “most of the time” and “all of the time,” which are assigned scores of 1 to 6, respectively. Raw dimension scores are computed as a sum of item responses and rescaled from a 0 to 100 scale such that higher scores indicate better quality of life. See Bagley et al., Validating Migraine-Specific Quality of Life Questionnaire v2.1 in Episodic and Chronic Migraine, Headache, 2012 March; 52 (3): 409-21.
The primary efficacy endpoint was change from baseline in mean monthly migraine days across the 12-week treatment period. Secondary efficacy endpoints, tested in hierarchical order, were change from baseline in mean monthly headache days across the 12-week treatment period, change from baseline in mean monthly acute medication use days across the 12 week treatment period, ≥50% reduction in 3-month average of monthly migraine days, change from baseline in MSQ v 2.1 Role Function-Restrictive domain score at week 12, change from baseline in mean monthly Performance of Daily Activities domain score of the AIM-D across the 12-week treatment period, and change from baseline in mean monthly Physical Impairment domain score of the AIM-D across the 12-week treatment period. An exploratory analysis of the time course of efficacy for atogepant by 4-week intervals, based on the least square mean change from baseline for the number of monthly migraine days over the 12-week treatment period was also conducted.
A secondary endpoint measured the change from baseline in MSQ v2.1 Role Function Restrictive Domain Score at Week 12. The Migraine-Specific Quality of Life Questionnaire Version 2.1 is one of the most frequently utilized disease-specific tools assessing the impact of migraine on HRQL. The MSQ measures the impact of migraine on the patient's HRQL over the past 4 weeks across three dimensions: Role Function-Restrictive (RR), Role Function-Preventive (RP), and Emotional Function (EF).

[2] = tested on: participants with episodic migraine; test: Study B: MSQ v2.1 domain score over 52 weeks; type: in vivo, human; details: Role Function-Restrictive (RFR) domain, atogepant 60 mg, mITT Population
Source text: as §1
The Migraine-Specific Quality of Life Questionnaire version 2.1 (MSQv2.1) Role Function-Restrictive (RFR) domain least squares (LS) mean (standard error [SE]) at baseline was 48.1 (20.26) and LS mean changes from baseline throughout the trial are shown in FIG. 17 and in Table 32. Findings indicated rapid improvement over the first 12 weeks and sustained improvement from 12 to 52 weeks, and non-zero confidence intervals throughout indicate significant improvement at each timepoint assessed.

C[C@@H]1[C@H](c2c(F)ccc(F)c2F)C[C@H](NC(=O)c2cnc3c(c2)C[C@@]2(C3)C(=O)Nc3ncccc32)C(=O)N1CC(F)(F)F [atogepant]
MSQ v2.1 RFR domain score, LSMD vs. placebo (95% CI) ([1]; 10 mg QD (symbol *), week 4, FIG. 11): 8.6 | MSQ v2.1 RFR domain score, LSMD vs. placebo (95% CI) ([1]; 10 mg QD (symbol *), week 8, FIG. 11): 11.3 | MSQ v2.1 RFR domain score, LSMD vs. placebo (95% CI) ([1]; 10 mg QD, Week 12): 9.9 | MSQ v2.1 Role Function Restrictive domain score, Week 12, mean (SD) ([1]; 10 mg QD): 75.6 | MSQ v2.1 RFR domain score, LSMD vs. placebo (95% CI) ([1]; 10 mg QD, week 12, listed as Atogepant): 9.90 | MSQ v2.1 Role Function Restrictive domain score, MMRM LS mean change (SE) ([1]; 10 mg QD): 30.35 | MSQ v2.1 Role Function Restrictive domain score, change from baseline, mean (SD) ([1]; 10 mg QD): 30.8 | MSQ v2.1 EF domain, improvement vs placebo ([1]; 10 mg): 8.3 | MSQ v2.1 RFP domain, improvement vs placebo ([1]; 10 mg): 5.8 | MSQ v2.1 RFR domain score, LSMD vs. placebo (95% CI) ([1]; 30 mg QD (symbol †), week 4, FIG. 11): 11.2 | MSQ v2.1 RFR domain score, LSMD vs. placebo (95% CI) ([1]; 30 mg QD (symbol †), week 8, FIG. 11): 9.9 | MSQ v2.1 RFR domain score, LSMD vs. placebo (95% CI) ([1]; 30 mg QD, Week 12): 10.1 | MSQ v2.1 Role Function Restrictive domain score, Week 12, mean (SD) ([1]; 30 mg QD): 75.4 | MSQ v2.1 RFR domain score, LSMD vs. placebo (95% CI) ([1]; 30 mg QD, week 12, listed as Atogepant): 10.08 | MSQ v2.1 Role Function Restrictive domain score, MMRM LS mean change (SE) ([1]; 30 mg QD): 30.53 | MSQ v2.1 Role Function Restrictive domain score, change from baseline, mean (SD) ([1]; 30 mg QD): 31.1 | MSQ v2.1 EF domain, improvement vs placebo ([1]; 30 mg): 9.7 | MSQ v2.1 RFP domain, improvement vs placebo ([1]; 30 mg): 6.9 | MSQ v2.1 RFR domain score, LSMD vs. placebo (95% CI) ([1]; 60 mg QD (symbol ‡), week 4, FIG. 11): 12.3 | MSQ v2.1 RFR domain score, LSMD vs. placebo (95% CI) ([1]; 60 mg QD (symbol ‡), week 8, FIG. 11): 10.8 | MSQ v2.1 RFR domain score, LSMD vs. placebo (95% CI) ([1]; 60 mg QD, Week 12): 10.8 | MSQ v2.1 Role Function Restrictive domain score, Week 12, mean (SD) ([1]; 60 mg QD): 78.0 | MSQ v2.1 RFR domain score, LSMD vs. placebo (95% CI) ([1]; 60 mg QD, week 12, listed as Atogepant): 10.80 | MSQ v2.1 Role Function Restrictive domain score, MMRM LS mean change (SE) ([1]; 60 mg QD): 31.25 | MSQ v2.1 Role Function Restrictive domain score, change from baseline, mean (SD) ([1]; 60 mg QD): 30.5 | MSQ v2.1 EF domain, improvement vs placebo ([1]; 60 mg): 10.5 | MSQ v2.1 RFP domain, improvement vs placebo ([1]; 60 mg): 7.1 | Change from Baseline in MSQ v2.1 Domain Score, LS Mean Δ from baseline ([2]; Week 12): 30.02 | Change from Baseline in MSQ v2.1 Domain Score, LS Mean Δ from baseline ([2]; Week 24): 30.79 | Change from Baseline in MSQ v2.1 Domain Score, LS Mean Δ from baseline ([2]; Week 36): 32.34 | Change from Baseline in MSQ v2.1 Domain Score, LS Mean Δ from baseline ([2]; Week 48): 34.32 | Change from Baseline in MSQ v2.1 Domain Score, LS Mean Δ from baseline ([2]; Week 52): 34.70
